Data published in article PMC8509428, “The Phenoxyalkyltriazine Antagonists for 5-HT6 Receptor with Promising Procognitive and Pharmacokinetic Properties In Vivo in Search for a Novel Therapeutic Approach to Dementia Diseases” (International Journal of Molecular Sciences, 2021).
Where two headings read alike, the source gives them in different places.

Columns and labels:
rats [1] = assay: Exploratory activity measured in the EPM test; assay type: in vivo, rat; conditions: mean ± SEM
Protocol: The experiment was performed using an EPM apparatus (details see above). Total ambulation (the total distance covered by a rat, and ambulation along X and Y axis) was taken to discern drug effects on general activity from those on open-arm exploration, during a 5-min test period (i.e., the time equal to the observation period in the EPM test). Rats’ behavior was not videotaped during the test.

rats [2] = assay: Elevated plus-maze (EPM) test; assay type: in vivo, rat; conditions: for Open Arms % of entries / Open Arms % of time / Open Arms Distance / Open Arms Entries / Open Arms Time: mean ± SEM
Description: The testing procedure was based on a method described by. Plus-maze apparatus (an automated device produced by Campden Instruments Ltd. (Leicestershire, UK) made of durable, high density, non-porous black plastic, elevated to a height of 50 cm, consisted of two open arms (50 × 10 cm) and two closed arms (50 × 10 cm, and 30 cm high walls), arranged so that the two arms of each type were opposite each other. The floor of the plus-maze was made of infrared transparent material what means that there are no visible sensors. Plus-maze apparatus was connected to PC software by control chassis. The experiments were conducted in a darkened room, only the center of the maze was illuminated with low-intensity light (30 lux measured on the maze level). Each rat was gently placed in the center of the plus-maze, facing one of the closed arms, immediately after a 5-min adaptation period in a plastic black box (60 × 60 × 35 cm), to increase the overall activity in the EPM. During a 5-min test period, automated Motor Monitor System recorded the number of entries into the closed and open arms and the time spent in either type of arms. The device counted an effective arm-entry when the four paws of a rat were into any arm. The maze was thoroughly cleaned after each trial. The EPM test is an “unconditional” anxiety-like test based on rodents’ natural aversion to heights and open space.

hepatoma HepG2 cell line = assay: Hepatotoxicity, HepG2 viability (MTS); assay type: cell-based; conditions: 0.1–100 µM, 72 h
Protocol: Cells were grown under previously described conditions. […] The cells’ viability was determined by CellTiter 96® AQueous Non-Radioactive Cell Proliferation Assay (MTS), which was purchased from Promega® (Madison, WI, USA). The absorbance was measured using a microplate reader EnSpire (PerkinElmer, Waltham, MA USA) at 490 nm. All compounds were tested in quadruplicate.

human 5-HT6R = conditions: ± SD; read-out: Ki 5-HT6 (converted); cited from earlier work
[3] = Metabolic stability in rat liver microsomes; assay type: in vitro ADME
Protocol: The tested 5-HT6R ligands (50 µM) were incubated in the presence of RLMs (1 mg/mL) in 10 mM Tris–HCl buffer (37 °C). The LC/MS analyses with additional MS ion fragmentation of the products and substrates were performed to determine the most probable structures of 5-HT6R ligands’ metabolites. LC/MS Waters ACQUITY™ TQD system with the TQ Detector (Waters, Milford, CT, USA).

PAMPA permeability = assay type: in vitro ADME; conditions: PBS pH 7.4, 5 h, triplicate, read-out: Pe (PAMPA permeability coefficient) ± SD
Protocol: The 96-well Pre-coated PAMPA Plate System Gentest™ that was used was obtained from Corning (Tewksbury, MA, USA). […] 200 μL/well of PBS was added to the acceptor wells. All compounds were analyzed in triplicate. The plate was incubated at room temperature for 5 h. Then, the 50 μL was aspirated from each well and diluted next with 50 µL solution of an internal standard (IS). The compounds’ concentrations in acceptor and donor wells were estimated by the UPLC-MS analyses, which were performed by LC/MS Waters ACQUITY™ TQD system with the TQ Detector (Waters, Milford, CT, USA). The permeability coefficients (Pe, cm/s) were calculated according described previously formulas.

[4] = molecular target: human serotonin 5-HT6 receptor (Homo sapiens, UniProt P50406); assay: Functional assay for 5-HT6 receptor (cAMP, 1321N1 cells)
Sequence of human serotonin 5-HT6 receptor (P50406 whole entry): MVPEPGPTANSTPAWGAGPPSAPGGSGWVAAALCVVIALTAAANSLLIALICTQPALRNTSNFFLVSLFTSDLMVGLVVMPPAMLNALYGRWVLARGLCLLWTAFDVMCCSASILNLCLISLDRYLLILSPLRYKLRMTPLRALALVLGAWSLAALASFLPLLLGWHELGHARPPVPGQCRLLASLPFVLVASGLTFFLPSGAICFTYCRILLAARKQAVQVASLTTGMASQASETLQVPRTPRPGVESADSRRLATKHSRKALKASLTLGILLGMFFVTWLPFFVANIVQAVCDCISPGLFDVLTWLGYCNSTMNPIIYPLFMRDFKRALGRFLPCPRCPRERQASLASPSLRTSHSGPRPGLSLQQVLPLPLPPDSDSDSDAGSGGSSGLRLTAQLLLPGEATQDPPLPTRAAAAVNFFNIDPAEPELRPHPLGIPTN

CYP3A4 = molecular target: T1, CYP3A4 (Homo sapiens, UniProt P08684); assay: CYP3A4 P450-Glo assay; assay type: in vitro ADME
T1 construct: purchased Promega
T1 sequence (P08684 whole entry): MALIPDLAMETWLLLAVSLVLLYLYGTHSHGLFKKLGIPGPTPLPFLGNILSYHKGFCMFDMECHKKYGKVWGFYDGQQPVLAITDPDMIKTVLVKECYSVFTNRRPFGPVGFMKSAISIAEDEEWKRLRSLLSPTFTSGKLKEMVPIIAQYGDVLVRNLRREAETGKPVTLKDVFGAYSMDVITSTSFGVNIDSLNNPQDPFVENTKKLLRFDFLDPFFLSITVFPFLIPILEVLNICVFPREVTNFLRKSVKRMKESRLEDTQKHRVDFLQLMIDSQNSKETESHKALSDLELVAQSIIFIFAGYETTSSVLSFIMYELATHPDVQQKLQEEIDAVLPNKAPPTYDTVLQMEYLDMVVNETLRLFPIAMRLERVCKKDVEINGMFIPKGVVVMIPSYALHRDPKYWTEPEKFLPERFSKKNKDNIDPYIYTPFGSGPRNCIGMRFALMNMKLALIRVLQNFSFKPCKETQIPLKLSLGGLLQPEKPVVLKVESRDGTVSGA
Protocol: The luminescent CYP3A4 P450-Glo™ Promega® (Madison, WI, USA) was used for the investigation of potential drug-drug interactions. All assays and protocols were described before. The compounds were tested in triplicate at the final concentrations in the range from 0.01 to 25 μM. The luminescent signal was measured by using a microplate reader EnSpire PerkinElmer (Waltham, MA, USA).

5-HT7R = conditions: ± SD; read-out: Ki 5-HT7 (converted); cited from earlier work
[5] = Bi-directional Caco-2 permeability assay; assay type: in vitro ADME; conditions: human, pH 7.4, Caco-2, 10 µM, triplicate
[6] = estimated from MS spectra supported by in silico data
[7] = 1321-N1, read-out: 5-HT6 Antagonist Mode Emax
[8] = 1321-N1, read-out: 5-HT6R Agonist Mode Emax

Structure (SMILES): CCC(Oc1cccc(Cl)c1Cl)c1nc(N)nc(N2CCN(C)CC2)n1 (racemic) [Compound 2, (RS)-4-[1-(2,3-dichlorophenoxy)propyl]-6-(4-methylpiperazin-1-yl)-1,3,5-triazin-2-amine]
- Total Distance (rats [1]; 0.3 mg/kg i.p.): 4372 ± 132 cm
- X Ambulation (rats [1]; 0.3 mg/kg i.p.): 180 ± 9
- Y Ambulation (rats [1]; 0.3 mg/kg i.p.): 101 ± 9
- Total Distance (rats [1]; 1 mg/kg i.p.): 3987 ± 281 cm
- X Ambulation (rats [1]; 1 mg/kg i.p.): 149 ± 18
- Y Ambulation (rats [1]; 1 mg/kg i.p.): 78 ± 9
- Total Distance (rats [1]; 3 mg/kg i.p.): 4595± 191 F(3,23) = 2.9772; NS cm
- X Ambulation (rats [1]; 3 mg/kg i.p.): 168 ± 6 F(3,23) = 1.9417; NS
- Y Ambulation (rats [1]; 3 mg/kg i.p.): 115 ± 7 F(3,23) = 3.1727; NS
- Open Arms % of entries (rats [2]; 0.3 mg/kg i.p.): 23.97 ± 4.97%
- Open Arms % of time (rats [2]; 0.3 mg/kg i.p.): 14.85 ± 3.30%
- Open Arms Distance (rats [2]; 0.3 mg/kg i.p.): 423 ± 87 cm
- Open Arms Entries (rats [2]; 0.3 mg/kg i.p.): 6.50 ± 1.60
- Open Arms Time (rats [2]; 0.3 mg/kg i.p.): 36.85 ± 8.90 s
- Open Arms % of entries (rats [2]; 1 mg/kg i.p.): 26.53 ± 3.69%
- Open Arms % of time (rats [2]; 1 mg/kg i.p.): 10.10 ± 1.20%
- Open Arms Distance (rats [2]; 1 mg/kg i.p.): 279 ± 45 cm
- Open Arms Entries (rats [2]; 1 mg/kg i.p.): 5.86 ± 0.90
- Open Arms Time (rats [2]; 1 mg/kg i.p.): 24.75 ± 3.19 s
- increase of distance travelled in the open arms vs vehicle (rats [2]; 3 mg/kg i.p.): 134%
- increase of number of open-arm entries vs vehicle (rats [2]; 3 mg/kg i.p.): 160%
- increase of percentage of time spent in open arms vs vehicle (rats [2]; 3 mg/kg i.p.): 137%
- increase of time spent in the open arms vs vehicle (rats [2]; 3 mg/kg i.p.): 120%
- Open Arms % of entries (rats [2]; 3 mg/kg i.p.): 41.89 ± 3.37%
- Open Arms % of time (rats [2]; 3 mg/kg i.p.): 30.00 ± 3.60%
- Open Arms Distance (rats [2]; 3 mg/kg i.p.): 914 ± 126 cm
- Open Arms Entries (rats [2]; 3 mg/kg i.p.): 13.00 ± 2.30
- Open Arms Time (rats [2]; 3 mg/kg i.p.): 72.23 ± 7.30 s
- increase of percentage of entries into open arms vs vehicle (rats [2]; 3 mg/kg i.p., not significant): 68%
- dose with anxiolytic-like activity in EPM test (rats [2]; i.p.): 3 mg/kg
- hepatotoxicity effect, HepG2 viability (hepatoma HepG2 cell line): no hepatotoxicity effect
- Ki (human 5-HT6R): 0.006 ± 0.002 µM
- parent compound remaining in the reaction mixture (Area%) ([3]; RLMs, 120 min incubation): 80%
- parent structure biotransformed ([3]; RLMs, 120 min incubation): 20%
- Metabolic Pathway, metabolite M1 [3, 6]: hydroxylation
- Metabolic Pathway, metabolite M2 [3, 6]: hydroxylation
- Metabolic Pathway, metabolite M3 [3, 6]: demethylation
- Papp at 5 h (PAMPA permeability): 20.5 ± 5.4 ×10⁻⁶ cm/s
- Emax [4, 7]: 96%
- Emax [4, 8]: 5 ± 1.1%
- inhibition against CYP3A4 (CYP3A4; all tested concentrations (0.1 to 25 μM)): did not display an inhibition
- Ki (5-HT7R): 5.2 µM
- Papp A→B at 2 h, 10 µM [5]: 50.3 ± 6.22 ×10⁻⁶ cm/s
- Papp B→A at 2 h, 10 µM [5]: 21.1 ± 2.14 ×10⁻⁶ cm/s

Structure (SMILES): CCC(Oc1ccccc1)c1nc(N)nc(N2CCN(C)CC2)n1 (racemic) [Compound 3, (RS)-4-(4-methylpiperazin-1-yl)-6-(1-phenoxypropyl)-1,3,5-triazin-2-amine]
- Total Distance (rats [1]; 0.3 mg/kg i.p.): 4033 ± 340 cm
- X Ambulation (rats [1]; 0.3 mg/kg i.p.): 151 ± 16
- Y Ambulation (rats [1]; 0.3 mg/kg i.p.): 80 ± 8
- Total Distance (rats [1]; 1 mg/kg i.p.): 4102 ± 291 cm
- X Ambulation (rats [1]; 1 mg/kg i.p.): 136 ± 15
- Y Ambulation (rats [1]; 1 mg/kg i.p.): 86 ± 10
- Total Distance (rats [1]; 3 mg/kg i.p.): 3545 ± 136 F(3,22) = 0.9071; NS cm
- X Ambulation (rats [1]; 3 mg/kg i.p.): 123 ± 5 F(3,22) = 0.6336; NS
- Y Ambulation (rats [1]; 3 mg/kg i.p.): 73 ± 5 F(3,22) = 0.3805; NS
- Open Arms % of entries (rats [2]; 0.3 mg/kg i.p.): 28.54 ± 6.70%
- Open Arms % of time (rats [2]; 0.3 mg/kg i.p.): 9.84 ± 1.50%
- Open Arms Distance (rats [2]; 0.3 mg/kg i.p.): 340 ± 59 cm
- Open Arms Entries (rats [2]; 0.3 mg/kg i.p.): 5.28 ± 0.42
- Open Arms Time (rats [2]; 0.3 mg/kg i.p.): 24.27 ± 3.41 s
- Open Arms % of entries (rats [2]; 1 mg/kg i.p.): 33.64 ± 2.70%
- Open Arms % of time (rats [2]; 1 mg/kg i.p.): 18.30 ± 4.10%
- Open Arms Distance (rats [2]; 1 mg/kg i.p.): 646 ± 145 cm
- Open Arms Entries (rats [2]; 1 mg/kg i.p.): 8.43 ± 1.36
- Open Arms Time (rats [2]; 1 mg/kg i.p.): 44.24 ± 9.71 s
- Open Arms % of entries (rats [2]; 3 mg/kg i.p.): 24.39 ± 7.60%
- Open Arms % of time (rats [2]; 3 mg/kg i.p.): 7.03 ± 2.00%
- Open Arms Distance (rats [2]; 3 mg/kg i.p.): 231 ± 87 cm
- Open Arms Entries (rats [2]; 3 mg/kg i.p.): 4.17 ± 1.10
- Open Arms Time (rats [2]; 3 mg/kg i.p.): 19.00 ± 5.50 s
- anxiolytic-like activity in EPM test (rats [2]; i.p., 60 min before test): did not show anxiolytic-like activity
- hepatotoxicity effect, HepG2 viability (hepatoma HepG2 cell line): no hepatotoxicity effect
- Ki (human 5-HT6R): 0.021 µM
- parent compound remaining in the reaction mixture (Area%) ([3]; RLMs, 120 min incubation): 95.7%
- Metabolic Pathway, metabolite M1 [3, 6]: decomposition and triple hydroxylation
- Metabolic Pathway, metabolite M2 [3, 6]: hydroxylation
- Papp at 5 h (PAMPA permeability): 15.1 ± 1 ×10⁻⁶ cm/s
- Emax [4, 7]: 100%
- Emax [4, 8]: 9 ± 1.4%
- CYP3A4 activity remaining (CYP3A4; 10 μM of compound): 64%
- Ki (5-HT7R): 19.9 µM
- Papp A→B at 2 h, 10 µM [5]: 3.16 ± 1.35 ×10⁻⁶ cm/s
- Papp B→A at 2 h, 10 µM [5]: 10.1 ± 0.15 ×10⁻⁶ cm/s
